Laboratory results published in ChEMBL document CHEMBL4265943, “Design and synthesis of potent dual inhibitors of JAK2 and HDAC based on fusing the pharmacophores of XL019 and vorinostat” (Eur J Med Chem, 2018).

How the values were obtained:
[1] = target: Tyrosine-protein kinase JAK2 (Homo sapiens, UniProt O60674); assay: Inhibition of human JAK2 using poly(Glu:Tyr)(4:1) as substrate preincubated for 20 mins followed by [gamma33P]ATP addition measured after 120 mins by ion exchange filter paper method
[2] = Selectivity index, ratio of CC50 for mouse TAMH cells to IC50 for human MDA-MB-231 cells; format: toxicity; details: TAMH cells (CC50) and MDA-MB-231 cells (IC50)
[3] = target: T1, Protein deacetylase HDAC6 (Homo sapiens, UniProt Q9UBN7); assay: Inhibition of HDAC6 (unknown origin) using Arg-His-Lys-Lys(Ac) as substrate preincubated with enzyme followed by substrate addition for 2 hrs and measured for 1.5 hrs at 15 mins time interval by fluorescence assay
T1 sequence (Q9UBN7 whole entry): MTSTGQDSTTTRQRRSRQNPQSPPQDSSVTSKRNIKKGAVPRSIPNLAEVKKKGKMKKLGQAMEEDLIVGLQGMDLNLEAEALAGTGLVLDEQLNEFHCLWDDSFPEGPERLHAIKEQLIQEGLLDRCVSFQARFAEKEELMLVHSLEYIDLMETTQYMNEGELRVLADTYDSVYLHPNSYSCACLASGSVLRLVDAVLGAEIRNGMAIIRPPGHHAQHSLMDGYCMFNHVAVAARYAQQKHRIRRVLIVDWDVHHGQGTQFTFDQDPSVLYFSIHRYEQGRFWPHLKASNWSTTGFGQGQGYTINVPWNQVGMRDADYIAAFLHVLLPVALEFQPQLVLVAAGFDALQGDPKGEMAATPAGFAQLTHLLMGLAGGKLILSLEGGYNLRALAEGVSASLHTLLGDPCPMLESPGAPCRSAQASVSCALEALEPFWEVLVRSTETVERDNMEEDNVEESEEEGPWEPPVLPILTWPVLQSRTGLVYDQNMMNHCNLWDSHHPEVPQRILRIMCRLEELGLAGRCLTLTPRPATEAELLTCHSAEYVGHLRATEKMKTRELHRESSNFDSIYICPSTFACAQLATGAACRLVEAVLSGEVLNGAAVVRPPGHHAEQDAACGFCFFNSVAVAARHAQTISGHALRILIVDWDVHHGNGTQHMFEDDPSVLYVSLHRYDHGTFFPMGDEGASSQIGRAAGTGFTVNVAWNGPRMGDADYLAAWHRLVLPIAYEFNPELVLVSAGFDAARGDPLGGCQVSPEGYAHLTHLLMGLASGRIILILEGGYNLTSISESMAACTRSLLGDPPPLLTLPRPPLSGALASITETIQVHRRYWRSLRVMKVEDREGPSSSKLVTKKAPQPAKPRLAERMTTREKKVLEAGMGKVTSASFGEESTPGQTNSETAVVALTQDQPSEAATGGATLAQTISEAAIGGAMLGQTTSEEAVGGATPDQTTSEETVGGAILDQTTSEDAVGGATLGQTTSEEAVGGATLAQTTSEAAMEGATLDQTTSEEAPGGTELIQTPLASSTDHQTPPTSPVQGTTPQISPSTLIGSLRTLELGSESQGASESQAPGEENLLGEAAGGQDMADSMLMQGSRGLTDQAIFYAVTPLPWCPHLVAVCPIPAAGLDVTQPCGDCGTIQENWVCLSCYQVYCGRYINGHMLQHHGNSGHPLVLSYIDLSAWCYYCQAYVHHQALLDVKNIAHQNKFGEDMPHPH

Histone deacetylase 1 = Histone deacetylase 1 (Homo sapiens, UniProt Q13547); assay: Inhibition of HDAC1 (unknown origin) using Arg-His-Lys-Lys(Ac) as substrate preincubated with enzyme followed by substrate addition for 2 hrs and measured for 1.5 hrs at 15 mins time interval by fluorescence assay
MDA-MB-231 = assay: Antiproliferative activity against human MDA-MB-231 cells after 72 hrs by MTT assay; format: functional, cell-based; details: MDA-MB-231, 72 h
PC-3 = assay: Antiproliferative activity against human PC3 cells after 72 hrs by MTT assay; format: functional, cell-based; details: PC-3, 72 h
[4] = Selectivity index, ratio of CC50 for human AC10 cells to IC50 for human PC3 cells; format: toxicity; details: AC10 cells (CC50) and PC3 cells (IC50)
[5] = Selectivity index, ratio of CC50 for human AC10 cells to IC50 for human MDA-MB-231 cells; format: toxicity; details: AC10 cells (CC50) and MDA-MB-231 cells (IC50)
[6] = Antiproliferative activity against mouse TAMH cells after 72 hrs by MTT assay; format: cell-based
HCT-116 = assay: Antiproliferative activity against human HCT116 cells after 72 hrs by MTT assay; format: functional, cell-based; details: HCT-116, 72 h
[7] = Selectivity index, ratio of CC50 for human AC10 cells to IC50 for human HCT116 cells; format: toxicity; details: AC10 cells (CC50) and HCT116 cells (IC50)
[8] = Selectivity index, ratio of CC50 for mouse TAMH cells to IC50 for human MCF7 cells; format: toxicity; details: TAMH cells (CC50) and MCF7 cells (IC50)
[9] = Selectivity index, ratio of CC50 for human AC10 cells to IC50 for human MCF7 cells; format: toxicity; details: AC10 cells (CC50) and MCF7 cells (IC50)
[10] = Selectivity index, ratio of CC50 for mouse TAMH cells to IC50 for human HCT116 cells; format: toxicity; details: TAMH cells (CC50) and HCT116 cells (IC50)
[11] = Antiproliferative activity against human AC10 cells after 72 hrs by MTT assay; format: cell-based
[12] = Selectivity index, ratio of CC50 for mouse TAMH cells to IC50 for human PC3 cells; format: toxicity; details: TAMH cells (CC50) and PC3 cells (IC50)
MCF7 = assay: Antiproliferative activity against human MCF7 cells after 72 hrs by MTT assay; format: functional, cell-based; details: MCF7, 72 h

Sequence of Histone deacetylase 1 (Q13547 whole entry): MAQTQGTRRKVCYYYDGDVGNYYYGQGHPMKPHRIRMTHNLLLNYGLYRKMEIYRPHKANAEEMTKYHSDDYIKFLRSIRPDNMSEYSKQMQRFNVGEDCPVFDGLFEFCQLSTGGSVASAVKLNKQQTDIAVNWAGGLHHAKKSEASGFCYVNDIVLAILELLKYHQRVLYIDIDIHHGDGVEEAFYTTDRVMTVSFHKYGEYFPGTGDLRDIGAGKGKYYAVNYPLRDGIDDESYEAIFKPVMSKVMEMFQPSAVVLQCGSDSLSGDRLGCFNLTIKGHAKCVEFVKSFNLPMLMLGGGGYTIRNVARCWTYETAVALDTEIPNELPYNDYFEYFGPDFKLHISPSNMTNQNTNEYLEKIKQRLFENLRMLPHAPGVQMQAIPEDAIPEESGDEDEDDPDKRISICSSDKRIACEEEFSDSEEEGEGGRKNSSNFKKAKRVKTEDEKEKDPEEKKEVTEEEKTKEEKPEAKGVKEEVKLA
Sequence of Tyrosine-protein kinase JAK2 (O60674 whole entry): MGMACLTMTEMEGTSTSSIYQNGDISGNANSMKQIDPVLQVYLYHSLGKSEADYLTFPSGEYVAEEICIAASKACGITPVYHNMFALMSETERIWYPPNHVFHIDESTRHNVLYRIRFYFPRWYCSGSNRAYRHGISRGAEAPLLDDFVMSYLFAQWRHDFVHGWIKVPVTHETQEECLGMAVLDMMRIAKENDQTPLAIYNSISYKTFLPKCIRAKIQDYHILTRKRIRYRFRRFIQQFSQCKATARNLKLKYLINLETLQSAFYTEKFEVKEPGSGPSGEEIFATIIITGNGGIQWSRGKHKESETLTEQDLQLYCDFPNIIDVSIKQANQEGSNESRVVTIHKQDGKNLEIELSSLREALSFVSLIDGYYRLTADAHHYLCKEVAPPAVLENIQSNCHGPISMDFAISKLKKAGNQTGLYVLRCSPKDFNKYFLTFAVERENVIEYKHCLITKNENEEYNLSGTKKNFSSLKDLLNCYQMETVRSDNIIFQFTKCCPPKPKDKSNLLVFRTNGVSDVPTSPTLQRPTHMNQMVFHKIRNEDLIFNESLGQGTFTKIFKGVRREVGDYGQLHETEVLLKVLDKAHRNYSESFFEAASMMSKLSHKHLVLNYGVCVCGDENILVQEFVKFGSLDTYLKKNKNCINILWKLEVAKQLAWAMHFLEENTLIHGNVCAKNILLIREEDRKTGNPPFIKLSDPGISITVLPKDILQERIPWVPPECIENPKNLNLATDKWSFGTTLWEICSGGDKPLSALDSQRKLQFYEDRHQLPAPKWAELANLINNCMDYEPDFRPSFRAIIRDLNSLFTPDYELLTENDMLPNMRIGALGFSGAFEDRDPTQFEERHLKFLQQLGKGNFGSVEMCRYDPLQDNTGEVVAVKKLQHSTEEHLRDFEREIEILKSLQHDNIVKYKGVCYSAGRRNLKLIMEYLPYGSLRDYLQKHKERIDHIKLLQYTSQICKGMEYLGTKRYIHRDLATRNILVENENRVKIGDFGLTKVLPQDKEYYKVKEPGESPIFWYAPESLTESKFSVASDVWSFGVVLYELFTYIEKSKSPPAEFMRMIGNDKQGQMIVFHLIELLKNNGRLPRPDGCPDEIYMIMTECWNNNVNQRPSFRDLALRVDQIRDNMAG

`CC(=O)Nc1ccc(-c2ccnc(Nc3cccc(N4CCOCC4)c3)n2)cc1` showed an IC50 [1] of 19.6 nM.

With `O=C(CCCCCCC(=O)Nc1ccc(-c2ccnc(Nc3ccccc3)n2)cc1)NO` the selectivity ratio [2] was 27, the IC50 [1] was 41.3 nM and the IC50 [3] was 1.44 nM. It also gave an IC50 (Histone deacetylase 1) of 3.8 nM, an IC50 (MDA-MB-231) of 270 nM and an IC50 (PC-3) of 210 nM. It also gave a selectivity ratio [4] of 14.3, a selectivity ratio [5] of 11.2 and a CC50 at 72 h [6] of 7280 nM. For the same compound, the IC50 (HCT-116) was 190 nM, the selectivity ratio [7] was 15.8 and the selectivity ratio [8] was 22.1. For the same compound, the selectivity ratio [9] was 9.12, the selectivity ratio [10] was 38.3 and the CC50 at 72 h [11] was 3010 nM. For the same compound, the selectivity ratio [12] was 34.7 and the IC50 (MCF7) was 330 nM.

`O=C(CCCCCCOc1ccc2cc1COC/C=C/COCc1cccc(c1)-c1ccnc(n1)N2)NO` showed an IC50 (PC-3) of 1700 nM.

With `CC(=O)Nc1ccc(-c2ccnc(Nc3ccc(N4CCCCC4)cc3)n2)cc1` the IC50 [1] was 2.9 nM.

`Cc1cnc(Nc2ccc(N3CCOCC3)cc2)nc1-c1ccc(NC(=O)CCCCCCC(=O)NO)cc1` showed an IC50 [3] of 3.7 nM, an IC50 (Histone deacetylase 1) of 289 nM and an IC50 (MDA-MB-231) of 1230 nM. It also gave an IC50 (PC-3) of 1740 nM, a CC50 at 72 h [6] of 7470 nM and an IC50 (HCT-116) of 2530 nM. For the same compound, the CC50 at 72 h [11] was 6060 nM and the IC50 (MCF7) was 2470 nM.

In the case of `CN1CCN(CC(=O)Nc2ccc(-c3ccnc(Nc4ccc(OCCCCCCC(=O)NO)cc4)n3)cc2)CC1`, the selectivity ratio [2] is reported as 2.08, the IC50 [1] is reported as 95.5 nM and the IC50 [3] is reported as 6.1 nM. For the same compound, the IC50 (Histone deacetylase 1) was 142 nM, the IC50 (MDA-MB-231) was 3880 nM and the IC50 (PC-3) was 4090 nM. It also gave a selectivity ratio [4] of 1, a selectivity ratio [5] of 1.06 and a CC50 at 72 h [6] of 8070 nM. It also gave an IC50 (HCT-116) of 1690 nM, a selectivity ratio [7] of 2.43 and a selectivity ratio [8] of 1.67. For the same compound, the selectivity ratio [9] was 0.85, the selectivity ratio [10] was 4.78 and the CC50 at 72 h [11] was 4100 nM. For the same compound, the selectivity ratio [12] was 1.97 and the IC50 (MCF7) was 4840 nM.

`CC(=O)Nc1ccc(-c2nc(Nc3cccc(OCCCCCCC(=O)NO)c3)ncc2C)cc1` gave a selectivity ratio [2] of 2.81, an IC50 [1] of 3.9 nM and an IC50 [3] of 6.1 nM. It also gave an IC50 (Histone deacetylase 1) of 155 nM, an IC50 (MDA-MB-231) of 1400 nM and an IC50 (PC-3) of 2760 nM. The selectivity ratio [4] was 1.75, the selectivity ratio [5] was 3.46 and the CC50 at 72 h [6] was 3940 nM. The IC50 (HCT-116) was 1190 nM, the selectivity ratio [7] was 4.07 and the selectivity ratio [8] was 2.3. It also gave a selectivity ratio [9] of 2.83, a selectivity ratio [10] of 3.31 and a CC50 at 72 h [11] of 4840 nM. For the same compound, the selectivity ratio [12] was 1.43 and the IC50 (MCF7) was 1710 nM.

In the case of `COC(=O)CCCCCCOc1ccc(Nc2nccc(-c3ccc(NC(C)=O)cc3)n2)cc1`, the IC50 [1] is reported as 239 nM, the IC50 [3] is reported as 3150 nM and the IC50 (Histone deacetylase 1) is reported as > 10000 nM.

Compound `O=C(CCCCCCC(=O)Nc1ccc(-c2ccnc(Nc3cccc(N4CCCCC4)c3)n2)cc1)NO` has a selectivity ratio [2] of 3.53, an IC50 [1] of 6.6 nM and an IC50 [3] of 9 nM. For the same compound, the IC50 (Histone deacetylase 1) was 179 nM, the selectivity ratio [4] was 7.12 and the selectivity ratio [5] was 4.02. It also gave a CC50 at 72 h [6] of 4690 nM, a selectivity ratio [7] of 3.2 and a selectivity ratio [8] of 4.42. The selectivity ratio [9] was 5.04, the selectivity ratio [10] was 2.81 and the CC50 at 72 h [11] was 5340 nM. The selectivity ratio [12] was 6.25.

In the case of `CC(=O)Nc1ccc(-c2nc(Nc3ccc(OCCCCCC(=O)NO)cc3)ncc2C)cc1`, the selectivity ratio [2] is reported as 5.26, the IC50 [1] is reported as 25.6 nM and the IC50 [3] is reported as 3.5 nM. It also gave an IC50 (Histone deacetylase 1) of 260 nM, an IC50 (MDA-MB-231) of 1060 nM and an IC50 (PC-3) of 2410 nM. For the same compound, the selectivity ratio [4] was 7.02, the selectivity ratio [5] was 16 and the CC50 at 72 h [6] was 5580 nM. For the same compound, the IC50 (HCT-116) was 920 nM, the selectivity ratio [7] was 18.4 and the selectivity ratio [8] was 2.35. It also gave a selectivity ratio [9] of 7.14, a selectivity ratio [10] of 6.07 and a CC50 at 72 h [11] of 16900 nM. It also gave a selectivity ratio [12] of 2.32 and an IC50 (MCF7) of 2370 nM.
